Consider 17 compounds from patent publication US12404289B2 (Gilead Sciences, Inc., priority 2020, dated 2025).

Usually CC50 stands for the concentration at which the toxic effect on the cells reaches its halfway point. Usually EC50 stands for the concentration giving half of the maximal effect.

What all share (assay type): cell-based
Series [1] can be described thus: CC50 assay (cytopathology in HEp-2 cells). To be noted: human. On the procedure:
The cytopathology of compounds in HEp-2 cells is determined in the following manner. HEp-2 cells are suspended in DMEM+GlutaMAX (supplemented with 10% FBS and 1% Penicillin/Streptomycin) and seeded into 96 well plates (3×10^3/well). After a 4-hour incubation at 37° C.+5% CO2, three-fold serial dilutions of compounds are added to each well using an HP D300e digital dispenser. The cells are then incubated for 4 days at 37° C. and 5% CO2. The final volume in each well is 200 μL. Untreated wells are included as controls for 100% cell viability, while compounds treated with 5 uM puromycin are included as controls for 0% viability. Following the incubation, 100 μL of culture supernatant is removed from each well and replaced with 100 μL of CellTiter-Glo reagent (Promega, Madison, WI, Cat #G7573). The plates are then rocked for 2 minutes followed by a 10-minute incubation at 25° C. Compound-induced cytopathic effect is then assessed by measuring luminescence signal using and Envision plate reader. Values are normalized to the untreated DMSO and puromycin-treated controls (as 100% and 0% viability, respectively) and data is fit using non-linear regression analysis using XLfit4. The CC50 value for each compound is then determined as the concentration reducing cell viability by 50%.

In series [2] the test system is Respiratory syncytial virus (RSV) strain A2. Description: RSV antiviral assay (HEp-2, 96 well). The note with it: human respiratory syncytial virus.
For a further series, the system named is SARS-CoV-2. Nature of the series: SARS-CoV-2 antiviral assay (A549-hACE2, Nano luciferase). To be noted: Severe acute respiratory syndrome coronavirus 2, 48 h, A549-hACE2 cells, SARS-CoV2-Nano, MOI 0.025, 48 h.
The mark [3] stands for this setting: HEp-2 cells, 4 days, CellTiter-Glo, Table 1, read-out: RSV CC50.
Setting [4] is: HEp-2, 96 h, read-out: EC50-RSV-HEP-2-96, HEp-2 cells, RSV A2, MOI=4, 4 days, 96 well, CellTiter-Glo, Table 1.
[5] abbreviates: Table 4, read-out: EC50 SARS CoV2.
[6] abbreviates: Table 1, read-out: SARS-CoV-2 EC50.
[7] abbreviates: HEp-2 cells, 4 days, CellTiter-Glo, Table 2, read-out: RSV CC50.
The mark [8] stands for this setting: HEp-2, 96 h, read-out: EC50-RSV-HEP-2-96, HEp-2 cells, RSV A2, MOI=4, 4 days, 96 well, Table 2.

Read-outs that look alike come from different tables or passages of the source.

In the case of `CCOC(=O)[C@H](C)NP(=O)(OC[C@H]1O[C@@](C#N)(c2ccc3c(N)ncnn23)[C@H](O)[C@@H]1O)Oc1ccc(C(C)(C)C)cc1` (stereo partly drawn) [Example 17, Ethyl ((((2R,3S,4R,5R)-5-(4-aminopyrrolo[2,1-f][1,2,4]triazin-7-yl)-5-cyano-3,4-dihydroxytetrahydrofuran-2-yl)methoxy)(4-(tert-butyl)phenoxy)phosphoryl)-L-alaninate], the CC50 at 4 days in series [1] (setting [3]) was determined as 20800 nM. Besides, the EC50 in series [2] (setting [4]) worked out at 164 nM; with SARS-CoV-2 (setting [5]) it was 850 nM.

`CCOC(=O)[C@H](C)NP(=O)(OC[C@H]1O[C@@](C#N)(c2ccc3c(N)ncnn23)[C@H](OC(=O)CC)[C@@H]1OC(=O)CC)Oc1ccccc1` (stereo partly drawn) [Example 11, (2R,3R,4R,5R)-2-(4-aminopyrrolo[2,1-f][1,2,4]triazin-7-yl)-2-cyano-5-((((((S)-1-ethoxy-1-oxopropan-2-yl)amino)(phenoxy)phosphoryl)oxy)methyl)tetrahydrofuran-3,4-diyl Dipropionate]: in series [1] (setting [3]), the CC50 at 4 days amounted to 12800 nM. Moreover, the concentration giving a half-maximal response (EC50) in series [2] (setting [4]) is 67.2 nM; with SARS-CoV-2 (setting [6]) it was 76.8 nM; with SARS-CoV-2 (setting [5]), 208 nM.

On to `CCOC(=O)[C@H](C)N[P@](=O)(OC[C@H]1O[C@@](C#N)(c2ccc3c(N)ncnn23)[C@H](OC(=O)C(C)C)[C@@H]1OC(=O)C(C)C)Oc1ccccc1` [Example 10, (2R,3R,4R,5R)-2-(4-aminopyrrolo[2,1-f][1,2,4]triazin-7-yl)-2-cyano-5-((((((S)-1-ethoxy-1-oxopropan-2-yl)amino)(phenoxy)phosphoryl)oxy)methyl)tetrahydrofuran-3,4-diyl bis(2-methylpropanoate)], for which the cytotoxic concentration (CC50) at 4 days in series [1] (setting [3]) stood at 10300 nM. Besides, in series [2] (setting [4]), the EC50 amounted to 52.9 nM.

In the case of `CCOC(=O)[C@H](C)NP(=O)(OC[C@H]1O[C@@](C#N)(c2ccc3c(N)ncnn23)[C@H](OC(C)=O)[C@@H]1OC(C)=O)Oc1ccccc1` (stereo partly drawn) [Example 12, (2R,3R,4R,5R)-2-(4-aminopyrrolo[2,1-f][1,2,4]triazin-7-yl)-2-cyano-5-((((((S)-1-ethoxy-1-oxopropan-2-yl)amino)(phenoxy)phosphoryl)oxy)methyl)tetrahydrofuran-3,4-diyl Diacetate], the CC50 at 4 days in series [1] (setting [3]) is 30900 nM. The figures for the EC50 (in series [2] (setting [4]); in the series with SARS-CoV-2 (setting [5])) were 166 nM and 139 nM, respectively.

Consider `COC(=O)[C@H](C)N[P@](=O)(OC[C@H]1O[C@@](C#N)(c2ccc3c(N)ncnn23)[C@H](OC(C)=O)[C@@H]1OC(C)=O)Oc1ccccc1` [Example 6, (2R,3R,4R,5R)-2-(4-aminopyrrolo[2,1-f][1,2,4]triazin-7-yl)-2-cyano-5-((((S)—(((S)-1-methoxy-1-oxopropan-2-yl)amino)(phenoxy)phosphoryl)oxy)methyl) tetrahydrofuran-3,4-diyl Diacetate], for which the CC50 at 4 days in series [1] (setting [3]) came out at 26400 nM. The EC50 in series [2] (setting [4]) was 193 nM.

Consider `COC(=O)[C@H](C)NP(=O)(OC[C@H]1O[C@@](C#N)(c2ccc3c(N)ncnn23)[C@H](OC(=O)C(C)C)[C@@H]1OC(=O)C(C)C)Oc1ccc(C(C)(C)C)cc1` (stereo partly drawn) [Example 16, (2R,3R,4R,5R)-2-(4-aminopyrrolo[2,1-f][1,2,4]triazin-7-yl)-5-((((4-(tert-butyl)phenoxy)(((S)-1-methoxy-1-oxopropan-2-yl)amino)phosphoryl)oxy)methyl)-2-cyanotetrahydrofuran-3,4-diyl bis(2-methylpropanoate)], for which the CC50 at 4 days in series [1] (setting [3]) was found to be 2840 nM. For the same compound, the EC50 in series [2] (setting [4]) was found to be 9.3 nM; in the series with SARS-CoV-2 (setting [6]) it was 83.8 nM; in the series on SARS-CoV-2 (setting [5]), 199 nM.

`CCC(CC)COC(=O)[C@H](C)N[P@](=O)(OC[C@H]1O[C@@](C#N)(c2ccc3c(N)ncnn23)[C@H](O)[C@@H]1O)Oc1ccccc1`: the half-maximal cytotoxic concentration (CC50) at 4 days in series [1] stood at 6080 nM. The EC50 in series [2] (96 h, HEp-2 cells, RSV A2, MOI=4, 4 days, 96 well, Table 2, read-out: EC50-RSV-HEP-2-96) came out at 14.9 nM; with SARS-CoV-2 (Table 2, read-out: SARS-CoV-2 EC50), 110 nM.

`CCOCCOCCOC(=O)[C@H](C)NP(=O)(OC[C@H]1O[C@@](C#N)(c2ccc3c(N)ncnn23)[C@H](OC(=O)C(C)C)[C@@H]1OC(=O)C(C)C)Oc1ccccc1` (stereo partly drawn) [Example 23, (2R,3R,4R,5R)-2-(4-Aminopyrrolo[2,1-f][1,2,4]triazin-7-yl)-2-cyano-5-((((((S)-1-(2-(2-ethoxyethoxy)ethoxy)-1-oxopropan-2-yl)amino)(phenoxy)phosphoryl)oxy)methyl)tetrahydrofuran-3,4-diyl bis(2-methylpropanoate)]: in series [1] (setting [3]), the CC50 at 4 days was determined as 5640 nM. Further, in series [2] (setting [4]), the concentration for a half-maximal effect (EC50) came out at 75.9 nM.

With `CCOC(=O)[C@H](C)NP(=O)(OC[C@H]1O[C@@](C#N)(c2ccc3c(N)ncnn23)[C@H](O)[C@@H]1O)Oc1ccccc1` (some centres unmarked), the CC50 at 4 days in series [1] (setting [7]) is more than 70000 nM. Also, the EC50 in series [2] (setting [8]) amounted to 296 nM.

Regarding `CCOCCOCCOC(=O)[C@H](C)NP(=O)(OC[C@H]1O[C@@](C#N)(c2ccc3c(N)ncnn23)[C@H](O)[C@@H]1O)Oc1ccccc1` (stereo partly drawn) [Example 22, 2-(2-Ethoxyethoxy)ethyl ((((2R,3S,4R,5R)-5-(4-aminopyrrolo[2,1-f][1,2,4]triazin-7-yl)-5-cyano-3,4-dihydroxytetrahydrofuran-2-yl)methoxy)(phenoxy)phosphoryl)-L-alaninate], the CC50 at 4 days in series [1] (setting [3]) is more than 50000 nM. The EC50 in series [2] (setting [4]) is more than 4720 nM.

On to `C[C@H](NP(=O)(OC[C@H]1O[C@@](C#N)(c2ccc3c(N)ncnn23)[C@H](O)[C@@H]1O)Oc1ccccc1)C(=O)OC1CCC1` (some centres unmarked), for which, in series [1] (setting [7]), the CC50 at 4 days stood at 34200 nM. In addition, the EC50 in series [2] (setting [8]) was 75.1 nM.

On to `COC(=O)[C@H](C)N[P@](=O)(OC[C@H]1O[C@@](C#N)(c2ccc3c(N)ncnn23)[C@H](OC(=O)C(C)C)[C@@H]1OC(=O)C(C)C)Oc1ccccc1` [Example 4, (2R,3R,4R,5R)-2-(4-aminopyrrolo[2,1-f][1,2,4]triazin-7-yl)-2-cyano-5-((((S)—(((S)-1-methoxy-1-oxopropan-2-yl)amino)(phenoxy)phosphoryl)oxy)methyl)tetrahydrofuran-3,4-diyl bis(2-methylpropanoate)], for which, in series [1] (setting [3]), the cytotoxic concentration (CC50) at 4 days turned out to be 5580 nM. For the same compound, in series [2] (setting [4]), the EC50 is 93.9 nM.

Take `CCC(CC)COC(=O)[C@H](C)NP(=O)(OC[C@H]1O[C@@](C#N)(c2ccc3c(N)ncnn23)[C@H](O)[C@@H]1O)Oc1c(C)cccc1C` (stereo partly drawn) [Example 19, 2-Ethylbutyl ((((2R,3S,4R,5R)-5-(4-aminopyrrolo[2,1-f][1,2,4]triazin-7-yl)-5-cyano-3,4-dihydroxytetrahydrofuran-2-yl)methoxy)(2,6-dimethylphenoxy)phosphoryl)-L-alaninate]: the cytotoxic concentration (CC50) at 4 days in series [1] (setting [3]) was determined as 26500 nM. In addition, the 50% effective concentration (EC50) in series [2] (setting [4]) is 687 nM.

Turning to `CC(=O)O[C@H]1[C@@H](OC(C)=O)[C@](C#N)(c2ccc3c(N)ncnn23)O[C@@H]1CO[P@@](=O)(N[C@@H](C)C(=O)OC(C)C)Oc1ccccc1` [Example 9, (2R,3R,4R,5R)-2-(4-aminopyrrolo[2,1-f][1,2,4]triazin-7-yl)-2-cyano-5-((((S)—(((S)-1-isopropoxy-1-oxopropan-2-yl)amino)(phenoxy)phosphoryl)oxy)methyl) tetrahydrofuran-3,4-diyl Diacetate], the cytotoxic concentration (CC50) at 4 days in series [1] (setting [3]) was more than 50000 nM. Further, in series [2] (setting [4]), the EC50 turned out to be 228 nM.

Take `COC(=O)[C@H](C)N[P@](=O)(OC[C@H]1O[C@@](C#N)(c2ccc3c(N)ncnn23)[C@H](O)[C@@H]1O)Oc1ccccc1`: the CC50 at 4 days in series [1] (setting [7]) turned out to be 48500 nM. The EC50 in series [2] (setting [8]) is 144 nM.

For the compound `CCC(CC)COC(=O)[C@H](C)NP(=O)(OC[C@H]1O[C@@](C#N)(c2ccc3c(N)ncnn23)[C@H](OC(=O)C(C)C)[C@@H]1OC(=O)C(C)C)Oc1c(C)cccc1C` (stereo partly drawn) [Example 20, (2R,3R,4R,5R)-2-(4-aminopyrrolo[2,1-f][1,2,4]triazin-7-yl)-2-cyano-5-((((2,6-dimethylphenoxy)(((S)-1-(2-ethylbutoxy)-1-oxopropan-2-yl)amino)phosphoryl)oxy)methyl)tetrahydrofuran-3,4-diyl bis(2-methylpropanoate)], in series [1] (setting [3]), the CC50 at 4 days amounted to 5180 nM. In series [2] (setting [4]), the concentration for a half-maximal effect (EC50) came to 444 nM.

As for `CCC(=O)O[C@H]1[C@@H](OC(=O)CC)[C@](C#N)(c2ccc3c(N)ncnn23)O[C@@H]1CO[P@@](=O)(N[C@@H](C)C(=O)OC(C)C)Oc1ccccc1` [Example 8, (2R,3R,4R,5R)-2-(4-aminopyrrolo[2,1-f][1,2,4]triazin-7-yl)-2-cyano-5-((((S)—(((S)-1-isopropoxy-1-oxopropan-2-yl)amino)(phenoxy)phosphoryl)oxy)methyl) tetrahydrofuran-3,4-diyl Dipropionate], in series [1] (setting [3]), the CC50 at 4 days is more than 40000 nM. Moreover, in series [2] (setting [4]), the EC50 came out at 156 nM.
